Reference: patent US20240109930A1, “TRIAZOLYL-METHYL SUBSTITUTED ALPHA-D-GALACTOPYRANOSIDE DERIVATIVES” (Idorsia Pharmaceuticals Ltd, priority 2021, published 2024)

Assays:
human Gal-3 (hGal-3) = human Gal-3 (hGal-3) (Homo sapiens (Human), UniProt P17931); test: Competitive binding assay: biotinylated hGal-3 binding to microplate-adsorbed asialofetuin (ASF); settings: IC50 values from several measurements given as geomean
In short: (§1)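 Biotinylated hGal-3 or hGal-1 (preferably cysteine-free Cys→Ser mutant), 300–1000 ng/mL, competes with compound for ASF-coated wells for 3 h at 4 °C. Bound lectin detected with streptavidin-peroxidase (80 ng/mL, 1 h, 4 °C) and ABTS by absorbance; IC50 reported as geomean of several runs.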

human Gal-1 (hGal-1) = human Gal-1 (hGal-1) (Homo sapiens, UniProt P09382, C131S/C17S/C43S/C61S/C89S); test: Competitive binding assay: biotinylated hGal-1 binding to microplate-adsorbed asialofetuin (ASF); settings: IC50 values from several measurements given as geomean
In short: as §1

human Gal-3 (hGal-3), sequence (P17931 whole entry): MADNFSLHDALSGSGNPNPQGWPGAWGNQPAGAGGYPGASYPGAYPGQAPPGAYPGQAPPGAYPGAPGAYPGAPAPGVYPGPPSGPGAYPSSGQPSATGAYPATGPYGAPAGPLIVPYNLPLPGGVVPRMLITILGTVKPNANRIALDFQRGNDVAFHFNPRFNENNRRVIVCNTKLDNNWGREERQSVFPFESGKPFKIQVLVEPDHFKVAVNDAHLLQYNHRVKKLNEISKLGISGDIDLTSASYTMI

Compound	IC50 (human Gal-3 (hGal-3)) [nM]	IC50 (human Gal-1 (hGal-1)) [nM]
CO[C@@H]1[C@@H](n2cc(-c3ccc(Cl)c(F)c3F)nn2)[C@@H](O)[C@@H](CO)O[C@@H]1Cc1cn(C2(C(F)F)COC2)nn1 [Ex 2.1.53., (2R,3R,4S,5R,6R)-4-(4-(4-chloro-2,3-difluorophenyl)-1H-1,2,3-triazol-1-yl)-6-((1-(3-(difluoromethyl)oxetan-3-yl)-1H-1,2,3-triazol-4-yl)methyl)-2-(hydroxymethyl)-5-methoxytetrahydro-2H-pyran-3-ol [1-(1,2,3-tri-deoxy-2-methoxy-3-[4-(4-chloro-2,3-difluorophenyl)-1H-1,2,3-triazol-1-yl]-α-D-galacto-pyranose)-1-(1-(3-difluoromethyl-3-oxetanyl)-1H-triazol-4-yl)-methane]]	20	420
CO[C@@H]1[C@@H](n2cc(-c3ccc(Cl)c(F)c3F)nn2)[C@@H](O)[C@@H](CO)O[C@@H]1Cc1cn(C2(C(F)(F)F)CC2)nn1 [Ex 2.1.54., (2R,3R,4S,5R,6R)-4-(4-(4-Chloro-2,3-difluorophenyl)-1H-1,2,3-triazol-1-yl)-2-(hydroxymethyl)-5-methoxy-6-((1-(1-(trifluoromethyl)cyclopropyl)-1H-1,2,3-triazol-4-yl)methyl)tetrahydro-2H-pyran-3-ol]	30	700
CO[C@@H]1[C@@H](n2cc(-c3ccc(Cl)c(F)c3F)nn2)[C@@H](O)[C@@H](CO)O[C@@H]1Cc1cn(C2(C(F)(F)F)CCC2)nn1 [Ex 2.1.55.]	20	620
CO[C@@H]1[C@@H](n2cc(-c3ccc(Cl)c(F)c3F)nn2)[C@@H](O)[C@@H](CO)O[C@@H]1Cc1cn(C(C)(C)C(F)(F)F)nn1 [Ex 2.1.56.]	50	820
CO[C@@H]1[C@@H](n2cc(-c3ccc(Cl)c(F)c3F)nn2)[C@@H](O)[C@@H](CO)O[C@@H]1Cc1cn(C2CC(C(F)(F)F)(C(F)(F)F)C2)nn1 [Ex 2.1.57.]	500	28100
CO[C@@H]1[C@@H](n2cc(-c3ccc(Cl)c(F)c3F)nn2)[C@@H](O)[C@@H](CO)O[C@@H]1Cc1cn(C2(C(F)(F)F)COC2)nn1 [Ex 2.1.58., (2R,3R,4S,5R,6R)-4-(4-(4-chloro-2,3-difluorophenyl)-1H-1,2,3-triazol-1-yl)-2-(hydroxymethyl)-5-methoxy-6-((1-(3-(trifluoromethyl)oxetan-3-yl)-1H-1,2,3-triazol-4-yl)methyl)tetrahydro-2H-pyran-3-ol [1-(1,2,3-tri-deoxy-2-methoxy-3-[4-(4-chloro-2,3-difluorophenyl)-1H-1,2,3-triazol-1-yl]-α-D-galacto-pyranose)-1-(1-(3-trifluoromethyl-3-oxetanyl)-1H-triazol-4-yl)-methane]]	20	470
CO[C@@H]1[C@@H](n2cc(-c3ccc(Cl)c(F)c3F)nn2)[C@@H](O)[C@@H](CO)O[C@@H]1Cc1cn(C23COC(C)(C2)C3)nn1 [Ex 2.1.59., (2R,3R,4S,5R,6R)-4-(4-(4-chloro-2,3-difluorophenyl)-1H-1,2,3-triazol-1-yl)-2-(hydroxymethyl)-5-methoxy-6-((1-(1-methyl-2-oxabicyclo[2.1.1]hexan-4-yl)-1H-1,2,3-triazol-4-yl)methyl)tetrahydro-2H-pyran-3-ol]	50	2370
CO[C@@H]1[C@@H](n2cc(-c3ccc(Cl)c(F)c3F)nn2)[C@@H](O)[C@@H](CO)O[C@@H]1Cc1cn(C23CCOC(C)(C2)C3)nn1 [Ex 2.1.62., (2R,3R,4S,5R,6R)-4-(4-(4-chloro-2,3-difluorophenyl)-1H-1,2,3-triazol-1-yl)-2-(hydroxymethyl)-5-methoxy-6-((1-(1-methyl-2-oxabicyclo[3.1.1]heptan-5-yl)-1H-1,2,3-triazol-4-yl)methyl)tetrahydro-2H-pyran-3-ol]	30	1200
CO[C@@H]1[C@@H](n2cc(-c3ccc(Cl)c(F)c3F)nn2)[C@@H](O)[C@@H](CO)O[C@@H]1Cc1cn(C2(C(F)(F)F)CCCC2)nn1 [Ex 2.1.67.]	40	1030
CO[C@@H]1[C@@H](n2cc(-c3ccc(Cl)c(F)c3F)nn2)[C@@H](O)[C@@H](CO)O[C@@H]1Cc1cn([C@@]2(C(F)(F)F)C[C@H]3C[C@H]3C2)nn1 [Ex 2.1.69.]	40	470
CO[C@@H]1[C@@H](n2cc(-c3ccc(Cl)c(F)c3F)nn2)[C@@H](O)[C@@H](CO)O[C@@H]1Cc1cn(C2(C(F)(F)F)CC3CCC2C3)nn1 (some centres unmarked) [Ex 2.1.70.]	50	830
CO[C@@H]1[C@@H](n2cc(-c3ccc(Cl)c(F)c3F)nn2)[C@@H](O)[C@@H](CO)O[C@@H]1Cc1cn(C2(C(F)(F)F)CCC(F)(F)CC2)nn1 [Ex 2.1.71., (2R,3R,4S,5R,6R)-4-(4-(4-chloro-2,3-difluorophenyl)-1H-1,2,3-triazol-1-yl)-6-((1-(4,4-difluoro-1-(trifluoromethyl)cyclohexyl)-1H-1,2,3-triazol-4-yl)methyl)-2-(hydroxymethyl)-5-methoxytetrahydro-2H-pyran-3-ol]	50	670
CO[C@@H]1[C@@H](n2cc(-c3ccc(Cl)c(F)c3F)nn2)[C@@H](O)[C@@H](CO)O[C@@H]1Cc1cn(C2(C(F)(F)F)CCOCC2)nn1 [Ex 2.1.72., (2R,3R,4S,5R,6R)-4-(4-(4-chloro-2,3-difluorophenyl)-1H-1,2,3-triazol-1-yl)-2-(hydroxymethyl)-5-methoxy-6-((1-(4-(trifluoromethyl)tetrahydro-2H-pyran-4-yl)-1H-1,2,3-triazol-4-yl)methyl)tetrahydro-2H-pyran-3-ol]	50	480
CO[C@@H]1[C@@H](n2cc(-c3ccc(Cl)c(F)c3F)nn2)[C@@H](O)[C@@H](CO)O[C@@H]1Cc1cn(C2CC23CC3(F)F)nn1 (stereo partly drawn) [Ex 2.1.75., (2R,3R,4S,5R,6R)-4-(4-(4-chloro-2,3-difluorophenyl)-1H-1,2,3-triazol-1-yl)-6-((1-(4,4-difluorospiro[2.2]pentan-1-yl)-1H-1,2,3-triazol-4-yl)methyl)-2-(hydroxymethyl)-5-methoxytetrahydro-2H-pyran-3-ol]	50	2780
CO[C@@H]1[C@@H](n2cc(-c3ccc(Cl)c(F)c3F)nn2)[C@@H](O)[C@@H](CO)O[C@@H]1Cc1cn(C2(CF)CC2(F)F)nn1 (stereo partly drawn) [Ex 2.1.76., (2R,3R,4S,5R,6R)-4-(4-(4-chloro-2,3-difluorophenyl)-1H-1,2,3-triazol-1-yl)-6-((1-(2,2-difluoro-1-(fluoromethyl)cyclopropyl)-1H-1,2,3-triazol-4-yl)methyl)-2-(hydroxymethyl)-5-methoxytetrahydro-2H-pyran-3-ol]	20	810
CO[C@@H]1[C@@H](n2cc(-c3ccc(Cl)c(F)c3F)nn2)[C@@H](O)[C@@H](CO)O[C@@H]1Cn1cc(C2(CO)CC2)nn1 [Ex 2.2.4.]	50	1480

Compound	IC50 (human Gal-3 (hGal-3)) [nM]	IC50 (human Gal-1 (hGal-1)) [nM]
CO[C@@H]1[C@@H](n2cc(-c3ccc(Cl)c(F)c3F)nn2)[C@@H](O)[C@@H](CO)O[C@@H]1Cn1cc(C2(C)COC2)nn1 [Ex 2.2.6.]	30	1170
CO[C@@H]1[C@@H](n2cc(-c3ccc(Cl)c(F)c3F)nn2)[C@@H](O)[C@@H](CO)O[C@@H]1Cn1cc(C23CC(C2)C3)nn1 [Ex 2.2.12.]	50	3400
CO[C@@H]1[C@@H](n2cc(-c3ccc(Cl)c(F)c3F)nn2)[C@@H](O)[C@@H](CO)O[C@@H]1Cn1cc(C2(C)CCC2)nn1 [Ex 2.2.13.]	30	1510
CO[C@@H]1[C@@H](n2cc(-c3ccc(Cl)c(F)c3F)nn2)[C@@H](O)[C@@H](CO)O[C@@H]1Cn1cc(C2(C)CC2)nn1 [Ex 2.2.23.]	60	1710
CO[C@@H]1[C@@H](n2cc(-c3ccc(Cl)c(F)c3F)nn2)[C@@H](O)[C@@H](CO)O[C@@H]1Cn1cc(C2(O)CCC2)nn1 [Ex 2.2.31.]	90	2630
CO[C@@H]1[C@@H](n2cc(-c3ccc(Cl)c(F)c3F)nn2)[C@@H](O)[C@@H](CO)O[C@@H]1Cn1cc(C2CCCC2)nn1 [Ex 2.2.32.]	50	3810
CO[C@@H]1[C@@H](n2cc(-c3ccc(Cl)c(F)c3F)nn2)[C@@H](O)[C@@H](CO)O[C@@H]1Cn1cc(C2(O)CCCC2)nn1 [Ex 2.2.33.]	80	4780
CO[C@@H]1[C@@H](n2cc(-c3ccc(Cl)c(F)c3F)nn2)[C@@H](O)[C@@H](CO)O[C@@H]1Cn1cc(C(C)(C)O)nn1 [Ex 2.2.34.]	70	5120
CO[C@@H]1[C@@H](n2cc(-c3ccc(Cl)c(F)c3F)nn2)[C@@H](O)[C@@H](CO)O[C@@H]1Cn1cc(C2(O)CCOCC2)nn1 [Ex 2.2.35.]	60	3910
CO[C@@H]1[C@@H](n2cc(-c3ccc(Cl)c(F)c3F)nn2)[C@@H](O)[C@@H](CO)O[C@@H]1Cn1cc(C2(O)CC2)nn1 [Ex 2.2.36.]	90	3160
COC1=C(N2CC(c3ccc(Cl)c(F)c3F)NN2)C(O)=C(CO)O[C@@H]1Cn1cc(C23CCC(NC(=O)OC(C)(C)C)(CC2)CC3)nn1 (some centres unmarked) [Ex 2.2.37.]	70	13100
CO[C@@H]1[C@@H](n2cc(-c3ccc(Cl)c(F)c3F)nn2)[C@@H](O)[C@@H](CO)O[C@@H]1Cc1cn(C23CCC(N)(CC2)CC3)nn1 [Ex 2.2.39.]	70	6070
CO[C@@H]1[C@@H](n2cc(-c3ccc(Cl)c(F)c3F)nn2)[C@@H](O)[C@@H](CO)O[C@@H]1Cn1cc(C2(C(F)F)CC2)nn1 [Ex 2.2.51.]	60	2550
CO[C@@H]1[C@@H](n2cc(-c3ccc(Cl)c(F)c3F)nn2)[C@@H](O)[C@@H](CO)O[C@@H]1Cn1cc(C2(C(F)(F)F)CC2)nn1 [Ex 2.2.54.]	70	2460
CO[C@@H]1[C@@H](n2cc(-c3ccc(Cl)c(F)c3F)nn2)[C@@H](O)[C@@H](CO)O[C@@H]1Cn1cc(C2CC(F)(F)C2)nn1 [Ex 2.2.83.]	160	8800
